Results taken from patent US20210121456A1, “USE OF METHYLNALTREXONE TO ATTENUATE TUMOR PROGRESSION” (Salix Pharmaceuticals, Inc., priority 2014, published 2021).

How the values were obtained:
[1] = system: subjects with advanced medical illness and opioid-induced constipation; assay: Study 1: double-blind, randomized, placebo-controlled study of subcutaneous methylnaltrexone; type: in vivo, human
Protocol: A double-blind, randomized, placebo-controlled study of subcutaneous methylnaltrexone (MNTX) was conducted in subjects with advanced medical illness and a current history of opioid-induced constipation. To satisfy eligibility criteria for enrollment, subjects were required to be on stable doses of laxatives and opioid analgesics. In the context of the study, a stable dose of opioid analgesics was defined as no reduction in the dose of opioid analgesic of ≥50% for at least three days before the first dose of MNTX. A stable dose of laxatives was defined as having a standing laxative order (and not PRN, or as-needed) for at least three days before the first dose of MNTX. A diagnosis of constipation was provided if the subject had fewer than 3 bowel movements during the previous week by history and no clinically notable laxation in the 24 hours before the first dose of MNTX, or no clinical notable laxation in the 48 hours before the first dose of MNTX.
Eligible subjects were randomized to one of two treatment groups: MNTX 0.15 mg/kg (e.g., 8 mg for patients <62 kg body weight and 12 mg for patients ≥62 kg body weight) or placebo. Each treatment was administered every other day (QOD) subcutaneously for two weeks. Injections were administered subcutaneously in either the shoulder area, buttocks, abdomen, thighs or extremities. Rescue-laxatives, enemas or manual disimpactions were not administered within 4 hours before or after each dose of MNTX. Endpoints included: (1) the proportion of subjects with rescue-free laxation within 4 hours of the first dose of study drug, and (2) the proportion of subjects with ≥2 rescue-free laxations within 4 hours post dosing over 4 doses of study drug (the first week of the two-week treatment period). One hundred and thirty-four (134) subjects were enrolled and evaluated, including 78 patients with advanced cancers and 56 patients with other advanced illness, including COPD, cardiovascular disease and severe neurologic disease. Seventy-one (71) of the 134 subjects were randomized to the placebo group, and sixty-two (62) of the 134 subjects were randomized to MNTX treatment group. The co-primary efficacy endpoints of this study were: 1) the proportion of patients with laxation within 4 hours after the first dose of study drug, and 2) the proportion of patients with laxation within 4 hours after 2 of the first 4 doses (the first week of double-blind treatment). The primary endpoint was laxation within 4 hours. Secondary endpoints included the use of rescue medication and frequency of symptoms within 24 hours. […]

[2] = system: cancer subjects with opioid-induced constipation (tumor disease progression); assay: Pooled analysis of Study 1 and Study 2: adverse events of disease progression; type: in vivo, human
Description: As part of the routine adverse event (AE) evaluations filled out by all investigators in the studies described in Examples 1 and 2, AEs of tumor progression were tabulated. Both studies were randomized, placebo-controlled trials that involved a 2-week treatment period followed by a 2-week follow-up period. The enrolled subjects were advanced illness (incurable cancer or other end-stage disease) subjects with OIC who were receiving stable doses of laxatives and opioid analgesics. In the context of the study, a stable dose of opioid analgesics was defined as no reduction in the dose of opioid analgesic of ≥50% for at least three days before the first dose of MNTX. A stable dose of laxatives was defined as having a standing laxative order (and not PRN, or as-needed) for at least three days before the first dose of MNTX. A diagnosis of constipation was provided if the subject had (a) fewer than 3 bowel movements during the previous week by history and no clinically notable laxation in the 24 hours before the first dose of MNTX, or (b) no clinical notable laxation in the 48 hours before the first dose of MNTX. In Study 1 (Example 1), subjects received subcutaneous MNTX 0.15 mg/kg or placebo (PBO) every other day (QOD), and in Study 2 (Example 2) subjects received subcutaneous MNTX (8 mg or 12 mg based on body weight 38 to <62 kg or ≥62 kg, respectively) or placebo administered QOD. The 12 mg fixed dose was designed to correspond to the 0.15 mg/kg weight-based dose. Rescue-laxatives, enemas or manual disimpactions were not administered within 4 hours before or after each dose of MNTX. For the purpose of this analysis, only subjects with a cancer-related diagnosis were considered. For statistical significance testing, the Fisher's exact test was used (p<0.05).
Table 1 and FIG. 1 provide AEs of disease progression in the pooled analysis and for each individual study during the double-blind phase of the studies.
Furthermore, when the pool of MNTX-treated subjects across both studies was examined, there was a significant decrease in the percentage of subjects with disease progression between subjects who responded to MNTX treatment and those who were considered non-responders. A subject with laxation within 4 hours after two of the first four doses of MNTX was considered a responder.
For the analysis carried out in this Example and in Example 3, a subject with laxation occurring from 0-4 hours after two of the first four doses of MNTX was considered a MNTX responder or responsive subject. Data for placebo patients who elected to participate in the open-label MNTX treatment phase was collected from the first 4 doses of open-label treatment. Data for the MNTX-treated patients was collected from the first 4 doses of the double-blind phase of the study.

[3] = MNTX 0.15 mg/kg SC QOD, double-blind
[4] = regardless of the time after dose

Compound: C[N@+]1(CC2CC2)CC[C@]23c4c5ccc(O)c4O[C@H]2C(=O)CC[C@@]3(O)[C@H]1C5.[Br-] [MNTX, (R)—N-(cyclopropylmethyl) noroxymorphone methobromide]
- subjects with improvement in constipation distress ([1]; Day 1): 53%
- subjects for whom the bowel status was improved (second global rating, 'Likewise') ([1]; Day 7): 69.4%
- subjects who rated their bowel status improved (global rating scale) ([1]; Day 7): 73.5%
- subjects with improvement in constipation distress ([1]; Day 7): 64%
- subjects for whom the bowel status was improved (second global rating, 'Likewise') ([1]; Day 14): 67.9%
- subjects who rated their bowel status improved (global rating scale) ([1]; Day 14): 67.9%
- subjects with improvement in constipation distress ([1]; Day 14): 60%
- subjects with rescue-free laxation within 4 hours after at least 2 of the first 4 doses ([1]; MNTX 0.15 mg/kg SC QOD): 51.6%
- subjects with rescue-free laxation within 4 hours after at least 2 of the first 4 doses (number) ([1]; MNTX 0.15 mg/kg SC QOD): Thirty-two
- subjects with rescue-free laxation within 4 hours after at least 4 of the maximum 7 doses ([1]; MNTX 0.15 mg/kg SC QOD): 38.7%
- subjects with rescue-free laxation within 4 hours after at least 4 of the maximum 7 doses (number) ([1]; MNTX 0.15 mg/kg SC QOD): twenty-four
- subjects with rescue-free laxation within 4 hours after the first dose [1, 3]: 48.4%
- subjects with rescue-free laxation within 4 hours after the first dose (number) [1, 3]: 30 subjects
- median time to rescue-free laxation after the first dose ([1]; based on the subjects who had laxation): 1.0 h
- subjects using enemas ([1]; during double-blind treatment (baseline 12.7%)): 23.8%
- subjects using osmotic agents ([1]; during the study (baseline 30.2%)): 33.3%
- subjects with at least one rescue-free laxation ([1]; first week of treatment): 95.2%
- rescue-free laxations within 4 hours after any dose rated as moderate, considerable, or great difficulty ([1]; in vivo): 33.0%
- subjects with rescue-free laxations within 4 hours after any individual dose ([1]; range over doses): 37.3-48.4%
- subjects with rescue-free laxations within 24 hours after any individual dose ([1]; range over doses): 55.4-66.0%
- subjects with at least three rescue-free laxations per week [1, 4]: 67.7%
- subjects with at least three rescue-free laxations per week (number) [1, 4]: 42 subjects
- watery bowel movements ([1]; rescue-free laxations within 4 hours after any dose): 15.9%
- subjects with at least one rescue-free laxation ([1]; second week of treatment): 91.2%
- Adverse Events of Disease Progression, n/N ([2]; Combined (Study 1 & Study 2), double-blind phase, cancer subjects): 16/116
- % Progression ([2]; MNTX Non-Responders): 22.0%
- Disease Progression (number of subjects) ([2]; MNTX Non-Responders): 11
- No Disease Progression (number of subjects) ([2]; MNTX Non-Responders): 39
- % Progression ([2]; MNTX Responders): 7.6%
- No Disease Progression (number of subjects) ([2]; MNTX Responders): 61
- Disease Progression (number of subjects) ([2]; MNTX Responders (laxation within 4 hours after two of the first four doses)): 5
- No Disease Progression (number of subjects) ([2]; MNTX Total): 100
- Disease Progression (number of subjects) ([2]; MNTX Total, pooled): 16
- Adverse Events of Disease Progression, % ([2]; Study 1, double-blind phase): (16.2%)
- Adverse Events of Disease Progression, n/N ([2]; Study 1, double-blind phase): 6/37
- Adverse Events of Disease Progression, % ([2]; Study 2, double-blind phase): (12.7%)
- Adverse Events of Disease Progression, n/N ([2]; Study 2, double-blind phase): 10/79
- reduction in the incidence of AE of disease progression versus placebo ([2]; pooled analysis): ~46%
